Assay results reported in patent US20170037028A1 (BAYER PHARMA AKTIENGESELLSCHAFT, priority 2013, published 2017).

Columns and labels:
Format in all cases: cell-based
GLUT1 [1] = target: T1, GLUT1 (Homo sapiens, UniProt P11166); assay: Indirect measurement of GLUT1 activity by quantification of intracellular ATP levels (glucose induced ATP increase); set-up: endogenous in cells; host or cells: DLD1 or CHO-K1; settings: read-out: IC50 regarding glucose induced ATP increase (GLUT1 inhibition)
T1 sequence (P11166 1-492): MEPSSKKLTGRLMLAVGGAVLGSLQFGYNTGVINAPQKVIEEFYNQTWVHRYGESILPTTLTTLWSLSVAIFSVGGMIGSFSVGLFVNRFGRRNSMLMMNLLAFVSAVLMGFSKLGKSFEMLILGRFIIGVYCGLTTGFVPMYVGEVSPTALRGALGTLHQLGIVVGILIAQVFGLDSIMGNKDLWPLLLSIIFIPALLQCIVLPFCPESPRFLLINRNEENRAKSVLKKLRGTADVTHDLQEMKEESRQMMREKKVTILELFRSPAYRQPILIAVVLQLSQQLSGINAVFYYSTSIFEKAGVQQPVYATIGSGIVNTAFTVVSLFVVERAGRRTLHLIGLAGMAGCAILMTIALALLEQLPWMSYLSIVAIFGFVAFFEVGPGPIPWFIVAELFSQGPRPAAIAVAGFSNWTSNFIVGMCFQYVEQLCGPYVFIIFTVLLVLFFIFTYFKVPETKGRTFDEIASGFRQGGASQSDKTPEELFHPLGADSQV
Procedure, shortened: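 DLD1 or CHO-K1 cells were starved overnight in glucose-free medium with 1% FCS, then combined with an oxidative phosphorylation inhibitor. GLUT1 activity was read as glucose-induced ATP increase, GLUT2 as fructose-induced. Intracellular ATP was quantified by CellTiter-Glo luminescence.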

GLUT2 = target: T2, GLUT2 (Homo sapiens, UniProt P11168); assay: Indirect measurement of GLUT2 activity by quantification of intracellular ATP levels (fructose induced ATP increase); settings: 10 mM fructose, 1 μM Rotenone, 15 min; CellTiter-Glo ATP readout; read-out: IC50 regarding fructose induced ATP increase (GLUT2 inhibition)
T2 construct: host or cells: DLD1 or CHO-K1
T2 sequence (P11168 1-524): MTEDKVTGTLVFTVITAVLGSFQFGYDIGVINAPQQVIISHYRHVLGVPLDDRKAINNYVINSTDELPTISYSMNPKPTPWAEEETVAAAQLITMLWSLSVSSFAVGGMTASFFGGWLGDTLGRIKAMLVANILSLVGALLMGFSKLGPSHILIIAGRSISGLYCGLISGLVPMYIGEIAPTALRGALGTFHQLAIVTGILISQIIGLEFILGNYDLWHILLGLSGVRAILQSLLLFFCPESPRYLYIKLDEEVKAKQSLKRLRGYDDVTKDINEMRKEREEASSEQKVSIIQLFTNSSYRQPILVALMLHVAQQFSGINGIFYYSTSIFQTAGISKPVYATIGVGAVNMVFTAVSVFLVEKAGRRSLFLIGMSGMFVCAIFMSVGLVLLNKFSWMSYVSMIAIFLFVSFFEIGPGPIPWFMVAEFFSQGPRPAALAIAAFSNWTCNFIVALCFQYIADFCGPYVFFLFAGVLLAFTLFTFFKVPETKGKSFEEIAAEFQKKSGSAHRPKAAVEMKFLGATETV
Excerpt: Indirect Measurement of GLUT1 and GLUT2 Activity by Quantification of Intracellular ATP Levels
It is well known that a combination of small-molecule inhibitors of mitochondrial electron transport chain and glucose catabolism synergistically suppress ATP production and impair cellular viability (Ulanovskaya et al., 2008, 2011; Liu, et al. 2001). We therefore used DLD1 or CHO-K1 cells in combination with an oxidative phosphorylation inhibitor to identify GLUT1 and GLUT2 inhibitors. Cell lines were maintained in DMEM medium supplemented with 10% FCS and 1% Penicillin-Streptomycin solution and 2% Glutamax. The cells were treated with trypsin and seeded into 384 plates at a density of 4000 cells/well. The cells were then cultured overnight in glucose free media containing 1% FCS to reduce intracellular ATP levels. […] The CellTiter-Glo® Luminescent Cell Viability Assay from Promega was then used to measure ATP Levels.

GLUT1 [2] = target: T1, GLUT1; assay: 2-deoxy-D-glucose (3H) uptake assay, GLUT1 inhibition in cell lines; settings: H460 cell line; 3H-2-deoxy-D-glucose uptake; read-out: IC50 regarding GLUT1 inhibition
Description: Cells (e.g. H460 or CHO-K1) were cultured under standard conditions. 10000 cells per well were seeded in clear 96 well tissue culture isoplate plates and cultured overnight (PerkinElmer, 1450-516) under standard conditions. Culture medium was removed and cells were washed two times with 100 μL KRP buffer and then incubated for 45 minutes at 37° C. (KRP buffer: 10 mM sodium hydrogen phosphate, 130 mM sodium chloride, 5 mM potassium chloride, 1.3 mM magnesium sulfate, 1.3 mM calcium chloride (pH 7.5), 50 mM HEPES (pH 7.5), 4.7 mM potassium chloride, 1.25 mM magnesium sulfate, 1.25 mM calcium chloride) each. KRP wash buffer was removed and compound 126 (diluted in KRP buffer) was added and incubated for 30 minutes at 37° C. 200 nM radioligand (radioligand 2[1,2] 3H-Deoxy D-Glucose in KRP buffer) were added and incubated for 5 minutes at room temperature. The supernatant was removed and cells were washed with 100 μL ice-cold KRP for two times each. 25 μL of Lysis buffer (1% Triton-X, 0.5N sodium hydroxide) were added and incubated at room temperature for 5 minutes. 75 μL scintillation solution (Microscint-20, PerkinElmer) were added and the plates were shaken for 1 minute. The plates were incubated for 3 h at room temperature and the counts were determined by using a Wallace MicroBeta counter (60 seconds per well).

| Structure (SMILES) | IC50 (GLUT1 [1]) [nM] | IC50 (GLUT2) [nM] | IC50 (GLUT1 [2]) [nM] |
| --- | --- | --- | --- |
| CCc1noc(Cn2nc(C)c(NC(=O)c3cc(C(N)=O)nc4ccccc34)c2C)n1 [Example 1571] | 64.1 | 36100 |  |
| Cc1c(NC(=O)c2cc(C(F)(F)F)nc3ccc(Br)cc23)c(C(F)(F)F)nn1Cc1ccc(C(=O)NCCO)cn1 [Example 1065] | 18.7 |  |  |
| Cc1nn(Cc2cccc(S(C)(=O)=O)c2)c(C)c1NC(=O)c1cc(C(N)=O)nc2ccccc12 [Example 1642] | 289 |  |  |
| COc1ccccc1Cn1nc(C(F)(F)F)c(NC(=O)c2cc(C(N)=O)nc3ccccc23)c1C [Example 1492] | 113 |  |  |
| Cc1nn(Cc2ccc(CN(C)C)cc2)c(C)c1NC(=O)c1cc(C(N)=O)nc2cc(F)ccc12 [Example 388, N^4-(1-{4-[(dimethylamino)methyl]benzyl}-3,5-dimethyl-1H-pyrazol-4-yl)-7-fluoroquinoline-2,4-dicarboxamide] | 108 | 51200 |  |
| CCOC(=O)N=S(C)(=O)c1ccc(Cn2nc(C)c(NC(=O)c3cc(C(N)=O)nc4ccccc34)c2C)cc1 (racemic) [Example 376, (±)-ethyl [{4-[(4-{[(2-carbamoylquinolin-4-yl)carbonyl]amino}-3,5-dimethyl-1H-pyrazol-1-yl)methyl]phenyl}(methyl)oxido-λ^6-sulfanylidene]carbamate] | 642 |  |  |
| Cc1nn(Cc2cscn2)c(C)c1NC(=O)c1cc(C(F)(F)F)nc2ccc(Br)cc12 [Example 1351] | 134 |  |  |
| Cc1nn(CC2CNC(=O)O2)c(C)c1NC(=O)c1cc(C(F)(F)F)nc2ccc(Br)cc12 (centres unmarked) [Example 1206] | 451 |  |  |
| Cc1nn(Cc2ccc(F)cc2)c(C)c1NC(=O)c1ccnc2ccccc12 [Example 211, N-[1-(4-fluorobenzyl)-3,5-dimethyl-1H-pyrazol-4-yl]quinoline-4-carboxamide] | 957 |  |  |
| Cc1c(NC(=O)c2cc(C(F)(F)F)nc3ccc(Br)cc23)c(C(F)(F)F)nn1CCc1ccc(F)cc1 [Example 1373] | 1990 |  |  |
| Cc1nn(Cc2cscn2)c(C)c1NC(=O)c1cc(C(N)=O)nc2ccccc12 [Example 1339] | 72.2 |  |  |
| Cc1nn(Cc2ccc(F)c(F)c2)c(C)c1NC(=O)c1cc(C(F)(F)F)nc2cc(F)ccc12 [Example 168, N-[1-(3,4-difluorobenzyl)-3,5-dimethyl-1H-pyrazol-4-yl]-7-fluoro-2-(trifluoromethyl)quinoline-4-carboxamide] | 47.8 |  |  |
| Cc1nn(Cc2nccn2C)c(C)c1NC(=O)c1cc(C(N)=O)nc2ccccc12 [Example 1523] | 4140 |  |  |
| Cc1nn(Cc2ccccc2OC(F)(F)F)c(C)c1NC(=O)c1cc(C(F)(F)F)nc2ccc(Br)cc12 [Example 83, 6-bromo-N-{3,5-dimethyl-1-[2-(trifluoromethoxy)benzyl]-1H-pyrazol-4-yl}-2-(trifluoromethyl)quinoline-4-carboxamide] | 250 |  |  |
| Cc1nn(Cc2cccc(C#N)n2)c(C)c1NC(=O)c1cc(C(N)=O)nc2cc(F)ccc12 [Example 1707] | 124 |  |  |

Compounds with a lower IC50 (GLUT1 [1]), results first:

| IC50 (GLUT1 [1]) [nM] | IC50 (GLUT2) [nM] | IC50 (GLUT1 [2]) [nM] | Structure (SMILES) |
| --- | --- | --- | --- |
| 11.9 | 51200 |  | CNC(=O)c1nc(Cn2nc(C(F)(F)F)c(NC(=O)c3cc(C(N)=O)nc4cc(F)c(Cl)cc34)c2C)no1 [Example 1558] |
| 11.6 | 85400 |  | COc1cc(C(=O)Nc2c(C)nn(Cc3ccc(C#N)cc3)c2C)c2ccccc2n1 [Example 15, N-[1-(4-cyanobenzyl)-3,5-dimethyl-1H-pyrazol-4-yl]-2-methoxyquinoline-4-carboxamide] |
| 10 | 18400 |  | CCS(=O)(=O)N1CCC(Cn2nc(C)c(NC(=O)c3cc(C(N)=O)nc4cc(F)c(Cl)cc34)c2C)CC1 [Example 415, 6-chloro-N^4-(1-{[1-(ethylsulfonyl)piperidin-4-yl]methyl}-3,5-dimethyl-1H-pyrazol-4-yl)-7-fluoroquinoline-2,4-dicarboxamide] |
| 8.8 |  |  | Cc1nn(Cc2ccc(C(=O)NCCCC(=O)N(C)C)cc2)c(C)c1NC(=O)c1cc(C(F)(F)F)nc2ccc(Br)cc12 [Example 1044] |
| 8.6 |  |  | Cc1nn(Cc2ccc(C(=O)Nc3ccccc3)cn2)c(C)c1NC(=O)c1cc(C(F)(F)F)nc2ccc(Br)cc12 [Example 1041] |
| 7.3 |  |  | Cc1ccccc1Cn1nc(C(F)(F)F)c(NC(=O)c2cc(C(N)=O)nc3cc(F)ccc23)c1C [Example 1495] |
| 7 |  |  | Cc1nn(Cc2c(F)cc(C#N)cc2F)c(C)c1NC(=O)c1cc(C(N)=O)nc2ccccc12 [Example 391, N^4-[1-(4-cyano-2,6-difluorobenzyl)-3,5-dimethyl-1H-pyrazol-4-yl]quinoline-2,4-dicarboxamide] |
| 4.7 | 85400 | 15.4 | Cc1c(NC(=O)c2cc(C(N)=O)nc3ccccc23)c(C(F)(F)F)nn1Cc1ccc(C#N)cc1 [Example 126, N^4-[1-(4-cyanobenzyl)-5-methyl-3-(trifluoromethyl)-1H-pyrazol-4-yl]quinoline-2,4-dicarboxamide] |
| 3.8 |  |  | Cc1cc(F)ccc1Cn1nc(C(F)(F)F)c(NC(=O)c2cc(C(N)=O)nc3cc(F)ccc23)c1C [Example 1710] |
| 2.5 | 45100 |  | Cc1nn(Cc2ccc(C#N)cn2)c(C)c1NC(=O)c1cc(C(N)=O)nc2cccc(F)c12 [Example 352, N^4-{1-[(5-cyanopyridin-2-yl)methyl]-3,5-dimethyl-1H-pyrazol-4-yl}-5-fluoroquinoline-2,4-dicarboxamide] |
| 1.4 |  |  | Cc1nn(Cc2ccc(C(F)(F)F)cc2)c(C)c1NC(=O)c1cc(C(N)=O)nc2cc(F)c(Cl)cc12 [Example 1598] |
| 0.8 |  |  | Cc1nn(Cc2ccc(C#N)cc2F)c(C)c1NC(=O)c1cc(C(N)=O)nc2ccccc12 [Example 297, N^4-[1-(4-cyano-2-fluorobenzyl)-3,5-dimethyl-1H-pyrazol-4-yl]quinoline-2,4-dicarboxamide] |
